According to ChEMBL document CHEMBL3885881, “DrugMatrix”:

Species: Rattus norvegicus
Assay type: toxicity, organism-based, Sprague-Dawley
Conditions: in vivo, sc, 24 h, route mini-PUMP - SUBCUTANEOUS, time 1 day, vehicle 100 % SALINE; for ABSOLUTE EOSINOPHIL / ABSOLUTE LYMPHOCYTE / ABSOLUTE MONOCYTE / ABSOLUTE SEGMENTED NEUTROPHIL / BASOPHIL / EOSINOPHIL / ERYTHROCYTE COUNT / HEMATOCRIT / HEMOGLOBIN / LEUKOCYTE COUNT / LYMPHOCYTE / MEAN CORPUSCULAR HEMOGLOBIN / MEAN CORPUSCULAR HEMOGLOBIN CONCENTRATION / MEAN CORPUSCULAR VOLUME / MONOCYTE / NEUTROPHIL / NUCLEATED RED BLOOD CELLS / PLATELET COUNT: tissue Blood; for ALANINE AMINOTRANSFERASE / ALBUMIN / ALKALINE PHOSPHATASE / ASPARTATE AMINOTRANSFERASE / BLOOD UREA NITROGEN / CARBON DIOXIDE / CHLORIDE / CHOLESTEROL / CREATININE / GLUCOSE / LACTATE DEHYDROGENASE / LIPASE / PHOSPHORUS / POTASSIUM / SODIUM / TOTAL BILIRUBIN / TOTAL PROTEIN / URIC ACID: tissue Plasma
[1] = 0 mg/kg, vehicle control, dose level Control
[2] = […], dose 0.065 mg/Kg, dose level High

Description: DrugMatrix - Regimen: Single

C[C@]12CCC(=O)C=C1CC[C@@H]1[C@@H]2[C@@H](O)C[C@]2(C=O)[C@@H](C(=O)CO)CC[C@@H]12 [ALDOSTERONE]
ABSOLUTE EOSINOPHIL [1]: 26.17 CELLS/uL
ABSOLUTE LYMPHOCYTE [1]: 10985.83 CELLS/uL
ABSOLUTE MONOCYTE [1]: 234.5 CELLS/uL
ABSOLUTE SEGMENTED NEUTROPHIL [1]: 1753.5 CELLS/uL
BASOPHIL [1]: 0%
EOSINOPHIL [1]: 0.17%
ERYTHROCYTE COUNT [1]: 5.64 x10E6/uL
HEMATOCRIT [1]: 34.52%
HEMOGLOBIN [1]: 12.68 G/DL
LEUKOCYTE COUNT [1]: 13 x10E3/uL
LYMPHOCYTE [1]: 84.5%
MEAN CORPUSCULAR HEMOGLOBIN [1]: 22.5 pg
MEAN CORPUSCULAR HEMOGLOBIN CONCENTRATION [1]: 36.78 G/DL
MEAN CORPUSCULAR VOLUME [1]: 61.18 fL
MONOCYTE [1]: 1.83%
NEUTROPHIL [1]: 13.5%
NUCLEATED RED BLOOD CELLS [1]: 0.17 /100WBC
PLATELET COUNT [1]: 679.17 x10E3/uL
ALANINE AMINOTRANSFERASE [1]: 42.67 u/L
ALBUMIN [1]: 3.77 G/DL
ALKALINE PHOSPHATASE [1]: 291.17 u/L
ASPARTATE AMINOTRANSFERASE [1]: 74.5 u/L
BLOOD UREA NITROGEN [1]: 15.33 mg/dL
CARBON DIOXIDE [1]: 30 mmol/L
CHLORIDE [1]: 100.83 MEQ/L
CHOLESTEROL [1]: 65.33 mg/dL
CREATININE [1]: 0.15 mg/dL
GLUCOSE [1]: 179.83 mg/dL
LACTATE DEHYDROGENASE [1]: 162.67 u/L
LIPASE [1]: 8.5 u/L
PHOSPHORUS [1]: 12.2 mg/dL
POTASSIUM [1]: 5.73 MEQ/L
SODIUM [1]: 144.7 MEQ/L
TOTAL BILIRUBIN [1]: 0.15 mg/dL
TOTAL PROTEIN [1]: 5.87 G/DL
URIC ACID [1]: 1.93 mg/dL
ABSOLUTE EOSINOPHIL [2]: 35 CELLS/uL
ABSOLUTE LYMPHOCYTE [2]: 9989.33 CELLS/uL
ABSOLUTE MONOCYTE [2]: 255.33 CELLS/uL
ABSOLUTE SEGMENTED NEUTROPHIL [2]: 2453.67 CELLS/uL
BASOPHIL [2]: 0%
EOSINOPHIL [2]: 0.33%
ERYTHROCYTE COUNT [2]: 5.74 x10E6/uL
HEMATOCRIT [2]: 34.13%
HEMOGLOBIN [2]: 12.57 G/DL
LEUKOCYTE COUNT [2]: 12.73 x10E3/uL
LYMPHOCYTE [2]: 78.33%
MEAN CORPUSCULAR HEMOGLOBIN [2]: 21.87 pg
MEAN CORPUSCULAR HEMOGLOBIN CONCENTRATION [2]: 36.77 G/DL
MEAN CORPUSCULAR VOLUME [2]: 59.43 fL
MONOCYTE [2]: 2.33%
NEUTROPHIL [2]: 19%
NUCLEATED RED BLOOD CELLS [2]: 0.33 /100WBC
PLATELET COUNT [2]: 980 x10E3/uL
ALANINE AMINOTRANSFERASE [2]: 37.33 u/L
ALBUMIN [2]: 3.87 G/DL
ALKALINE PHOSPHATASE [2]: 321.67 u/L
ASPARTATE AMINOTRANSFERASE [2]: 76 u/L
BLOOD UREA NITROGEN [2]: 11.67 mg/dL
CARBON DIOXIDE [2]: 27.67 mmol/L
CHLORIDE [2]: 101.33 MEQ/L
CHOLESTEROL [2]: 65.33 mg/dL
CREATININE [2]: 0.14 mg/dL
GLUCOSE [2]: 206.67 mg/dL
LACTATE DEHYDROGENASE [2]: 145.67 u/L
LIPASE [2]: 9 u/L
PHOSPHORUS [2]: 13.27 mg/dL
POTASSIUM [2]: 5.08 MEQ/L
SODIUM [2]: 146.53 MEQ/L
TOTAL BILIRUBIN [2]: 0.17 mg/dL
TOTAL PROTEIN [2]: 5.9 G/DL
URIC ACID [2]: 2.27 mg/dL
